In patent publication US8187572B2, “Diabetogenic rat model” (Hoffmann-La Roche Inc., priority 2005, dated 2012):

Key:
Type in all cases: in vivo, rat
[1] = tested on: ZDF rats; test: Oral glucose tolerance test (OGTT) with fasting parameters and HOMA in Pioglitazone-treated ZDF rats; details: for HOMA (insulin resistance index) / fasting insulin levels: after 6 weeks of treatment
Experimental: ZDF and ZL rats were ordered at the age of 5 W. After arrival and following 1 week of adaptation, 1 ml of blood was collected retro-orbitally after a short narcosis (isoflurane) in 6 W-old rats. […] A group of 10 ZL rats was formed and followed as a control group along the study duration (FIG. 3). Three groups of ZDF rats receive either vehicle (untreated) or Pioglitazone (treated) as food Admix. In each untreated/treated group of ZDF rats, one is fed a high fat diet during 11 weeks (group_full), during 4 weeks (group_mild) or during 2 weeks (group_low). Treatment was administered orally and prepared as food-admix. This mode of administration was preferred over oral gavage to reduce stress to the animals, avoid dosing errors and minimize handling. Pioglitazone (sufficient for 90 kg food) was dissolved in 18 liters of water. For the three treatment groups of 10 rats each, 6 liters of solution was combined with 30 kg of the diabetogenic diet (KLIBA 2437 with 7% of fat) or 12 liters were mixed with 60 Kg of the chow diet (Kliba 3436). The food was carefully dried at a temperature not exceeding 40° C. and then pelleted. […] The graphs and tables present the data according to expected daily dose. […] Blood was then collected in conscious animals (tail vein) for baseline glucose and insulin measurements. […] Studying the evolution of blood glucose concentration along time after a load of glucose will give information about the ability of the organism to use glucose. Using the trapezoidal rule, glucose tolerance was calculated as area under the curve (AUC) of glucose concentration during 120 min and the change from baseline was calculated (delta AUC). HOMA index is also assessed during the OGTT by considering fasting insulin and fasting blood glucose (FBG) levels. HOMA: [FBG (mM)*(Fasting Insulin (μU))/22.5]. HOMA-index translates peripheral insulin resistance. Measurement of insulin was performed using Mercodia Rat Insulin ELISA kit.

[2] = tested on: ZDF rats; test: Intervention treatment with Pioglitazone in ZDF rats: post-prandial blood and plasma parameters; details: for average plasma TG level: at the end of treatment
Experimental: ZDF and ZL rats were ordered at the age of 5 W. After arrival and following 1 week of adaptation, 1 ml of blood was collected retro-orbitally after a short narcosis (isoflurane) in 6 W-old rats. […] A group of 10 ZL rats was formed and followed as a control group along the study duration (FIG. 3). Three groups of ZDF rats receive either vehicle (untreated) or Pioglitazone (treated) as food Admix. In each untreated/treated group of ZDF rats, one is fed a high fat diet during 11 weeks (group_full), during 4 weeks (group_mild) or during 2 weeks (group_low). Treatment was administered orally and prepared as food-admix. This mode of administration was preferred over oral gavage to reduce stress to the animals, avoid dosing errors and minimize handling. Pioglitazone (sufficient for 90 kg food) was dissolved in 18 liters of water. For the three treatment groups of 10 rats each, 6 liters of solution was combined with 30 kg of the diabetogenic diet (KLIBA 2437 with 7% of fat) or 12 liters were mixed with 60 Kg of the chow diet (Kliba 3436). The food was carefully dried at a temperature not exceeding 40° C. and then pelleted. […] The graphs and tables present the data according to expected daily dose. […] Blood sampling was always performed in the morning (9-11 am) 2-to-5 hours after feeding session and 2 h after last oral dosing (food was removed at 7:00 am). Blood (≈200 μl) was harvested retro-orbitally from slightly anesthetized rats (isoflurane) into tubes containing EDTA and kept on ice bed until centrifugation (6000 RPM for 20 minutes at 4° C.). […] Main plasma biochemical parameters (glucose(Gluco-quant, e.g. […] Quantification of HbA1c (%) was performed in whole blood, using an immuno-turbidimetric assay (Tina-quant, e.g. 11822039 from Roche Molecular Diagnostics). Glycosylated haemoglobin (HbA1c) is formed by the non-enzymatic covalent attachment of glucose to normal haemoglobin (HbA). […] HbA1c is a predictor of diabetic complications and interventions that reduce HbA1c correspondingly reduce the risk of complications (UKPDS, 1998). […] Commercially available ELISA kits (LINCO®) were used to quantify plasma concentration of insulin and adiponectin. Adiponectin is an adipokine which is […] and fasting plasma insulin concentration (Goldstein, 2002). Adiponectin plasma concentrations are decreased in […] patients and despite the fact that it is produced by adipocytes, as an individual becomes more obese, the adiponectine is decreased and insulin resistance increases ([…] et al., 1999).

[3] = Body weight, food intake and water intake of Pioglitazone-treated ZDF rats; details: ZDF rats group_low, group_mild and group_full; chronic treatment (7 weeks), 10 mg/kg/d food-admix
Experimental: ZDF and ZL rats were ordered at the age of 5 W. After arrival and following 1 week of adaptation, 1 ml of blood was collected retro-orbitally after a short narcosis (isoflurane) in 6 W-old rats. […] A group of 10 ZL rats was formed and followed as a control group along the study duration (FIG. 3). Three groups of ZDF rats receive either vehicle (untreated) or Pioglitazone (treated) as food Admix. In each untreated/treated group of ZDF rats, one is fed a high fat diet during 11 weeks (group_full), during 4 weeks (group_mild) or during 2 weeks (group_low). Treatment was administered orally and prepared as food-admix. This mode of administration was preferred over oral gavage to reduce stress to the animals, avoid dosing errors and minimize handling. Pioglitazone (sufficient for 90 kg food) was dissolved in 18 liters of water. For the three treatment groups of 10 rats each, 6 liters of solution was combined with 30 kg of the diabetogenic diet (KLIBA 2437 with 7% of fat) or 12 liters were mixed with 60 Kg of the chow diet (Kliba 3436). The food was carefully dried at a temperature not exceeding 40° C. and then pelleted. […] The graphs and tables present the data according to expected daily dose. […] Body weight and food consumption were recorded with an on-line data acquisition system ([…]) using electronic balances.

CCc1ccc(CCOc2ccc(CC3SC(=O)NC3=O)cc2)nc1.Cl (racemic) [Pioglitazone, (±)-5-[[4-[2-(5-ethyl-2-pyridinyl)ethoxy]phenyl]methyl]-2,4-]
improvement of glucose tolerance (AUC) compared to vehicle ([1]; group_full, OGTT after 6 weeks of treatment): 31%
HOMA (insulin resistance index) ([1]; group_full): 14.1±2.7
fasting insulin levels ([1]; group_full): 2.0 ± 0.4 ng/mL
FBG ([1]; group_full, after 7 weeks of treatment): 6.7 ± 0.9 mM
AUC reduced compared to vehicle ([1]; group_low, OGTT after 6 weeks of treatment): 36%
glucose excursion AUC ([1]; group_low, OGTT after 6 weeks of treatment, ZL 779±15): 1000±48
fasting insulin levels ([1]; group_low): 1.7 ng/mL
HOMA (insulin resistance index) ([1]; group_low, ZL 2.0±0.1): 9.4±0.8
FBG ([1]; group_low, vehicle 6.9±0.4, ZL 4.3±0.0): 5.1 ± 0.1 mM
improvement of glucose tolerance (AUC) compared to vehicle ([1]; group_mild, OGTT after 6 weeks of treatment): 29%
HOMA (insulin resistance index) ([1]; group_mild): 10.9±1.9
fasting insulin levels ([1]; group_mild): 1.6 ± 0.3 ng/mL
FBG ([1]; group_mild, after 7 weeks of treatment): 6.6 ± 1.3 mM
plasma total cholesterol levels ([2]; any of the treatment groups): did not change
reduction of plasma triglyceride levels compared to vehicle ([2]; group_full (fully diabetic ZDF rats)): 69.5±5.2%
HbA1C ([2]; group_full ZDF rats, 10 mg/kg): significant reduction
blood glucose levels ([2]; group_full ZDF rats, apparent after 2 weeks, partially maintained, 10 mg/kg): strongly reduced
hyperinsulinemia ([2]; group_full ZDF rats, at the beginning of treatment, effect gone after 5 weeks): significantly reduced
average plasma TG level ([2]; group_full): 2.8 ± 0.5 mM
plasma TG levels ([2]; group_full, compared with ZL 1.1±0.1): 2.9 ± 0.6 mM
plasma NEFA levels ([2]; group_full, data not shown): moderate improvement
hypertriglyceridemia ([2]; group_low): almost completely and immediately normalized
development of hyperglycaemia and increase in HbA1c ([2]; group_low (moderately diabetic ZDF rats), values similar to untreated ZL rats): fully prevented
average plasma TG level ([2]; group_low): 1.6 ± 0.1 mM
insulin levels ([2]; group_low, end of the 7 week treatment period, ZL 0.8±0.1): 2.1 ± 0.2 ng/mL
hyperinsulinemia ([2]; group_low, starting at week 2 of treatment, maintained until end of study): strongly reversed
increase in BW versus vehicle [3]: ≈ 30%
